Consider 1 compound from US6479070B1, “Compositions containing pinolenic acid and its use as a health component” (Unilever Patent Holdings, priority 1999, dated 2002).

Each structure is given as a SMILES string.

The subject of the experiment is PMA stimulated PGE2 Levels in Human Skin Fibroblasts. The note with it: primary human foreskin fibroblasts, pinolenic acid even at levels of 10 ng/ml, 24 h pre-incubation. How it is done:
A reduction of the levels of ICAM and PGE2 is indicative for the anti-inflammatory effect. Primary human foreskin fibroblasts at passage 2 (P2) were seeded into 96-well plates at 10000 cells/well and maintained for 24 hours in an atmosphere of 5% carbon dioxide in Dulbeccos Modified Eagles Medium (DMEM) supplemented with 10% foetal calf serum. […] PMA represents an external stressor which induces oxidative stress and inflammatory responses in cells. The fibroblasts/media were then analysed as described below immediately or snap frozen in liquid nitrogen and stored at −70° C. for future analysis. […] PGE2 levels in the medium were determined with a Biotrak PGE2 immunoassay kit (Amersham, UK). The assay is based on the competition between unlabelled PGE2 in the sample and a fixed quantity of horseradish peroxidase labelled PGE2 for a limited amount of fixed PGE2 specific antibody. Concentrations of unlabelled sample PGE2 are determined according to a standard curve which was obtained at the same time.

With `CCCCC/C=C\C/C=C\CC/C=C\CCCC(=O)O` [Pinolenic acid, 5,9,12 C18:3 fatty acid], the “inflammatory response as measured by PGE2 production” value is recorded as “dramatically reduces the inflammatory response”.
